Results from US4201784A, “Substituted 2-[2'-(5"-nitrofuryl-2")vinyl-and 4'-(5"-nitrofuryl-2"-1,3-butadieryl]quinoline-4-carboxylic acid amides and salts thereof” (Institut Organicheskogo Sinteza Akademii Nauk Latviiskoi SSR, priority 1977, dated 1980).
Read-outs that look alike come from different tables or passages of the source.

Tests used:
lymphatic leukemia P-388 = test: Antitumor activity, lymphatic leukemia P-388; type: in vivo, mice
Method: (§1) Apart from the tests on Ehrlich ascitic tumor, giniquine was studied on twelve more inoculated tumors. Seven tumors (melanoma B16, sarcoma AK, large intestine carcinoma acatol-1, sarcoma 180, adenocarcinoma 755, Lewis lung carcinoma and sarcoma 37) were inoculated subcutaneously with 50 mg of tumoral cells per mouse. Four tumors (lymphatic leukemies L 5178, L 5178Y, L 1210 and P-388) were inoculated intraperitoneally with 10^6 cells per mouse. One tumor (La, hemocytoblastosis) was inoculated intraperitoneally by injecting 50 mg of cell suspension of spleen and liver of mice suffering La hemocytoblastosis, per mouse. Giniquine was injected intraperitoneally five times for seven days: 1,2,3,4,7 days or 3,4,5,6,7 days after the implantation of tumor. The rate of deceleration of the tumor growth was established 14 days after the ultimate injection of giniquine; life of test animals was recorded for 60 days.

melanoma B16 = test: Antitumor activity, melanoma B16; type: in vivo, mice
Method: as §1, with “Giniquine was injected intraperitoneally five times for seven days: 1,2,3,4,7 days or 3,4,5,6,7 days after the implantation of tumor.” left out

[1] = Biological availability, blood and liver of rats; type: in vivo; details: intraperitoneal 100 mg/kg
Method: The biological availability of giniquine was studied on common white male rats with a mass of 150-200 g and common white male mice with a mass of 25-30 g. The test began seven days after Ehrlich ascitic carcinoma was inoculated to the animals.
Giniquine was injected intraperitoneally in 100 mg/kg doses, using distilled water as a solvent. The animals were slaughtered at preset time intervals (5,15,30 and 60 minutes) and a biological material (blood and liver for rats and ascites for mice) was taken for analysis. To separate ascitic fluid from the tumor cells, ascites was centrifuged at 2000 r.p.m. for 10 minutes. The precipitate was washed with a mixture of physiological solution and heparin and was again centrifuged under the same conditions, 20% homogenates in distilled water were prepared from ascitic cells.
Giniquine was extracted from the biological material with chloroform.
The extraction procedure comprised the following stages: 0.1 ml of ethyl alcohol were added to 1 ml of tested sample and the solution was thoroughly mixed with 0.5 ml of a saturated potassium carbonate solution, then 4 ml of chloroform was added. Closed test tubes were vigorously shaken on a rocker for one hour. After the shaking, the samples were centrifuged at 5000 r.p.m. for ten minutes. The chloroform layer was used for analysis. Daylight was avoided.
Concentration of the preparation in biological samples was determined by spectrophotometry at 400 nm using molar absorption factor (ε0.10^-3 =36.04).
The results were expressed in μg/ml of sample. Minimum sensitivity of the method was 1.1 μg/ml.

Spleen = test: In vivo biosynthesis of DNA, RNA and protein in spleen; design: species or system mice; details: for Incorporation of 2-^14 C-leucine in protein / Incorporation of 2-^14 C-thymidine in DNA: intraperitoneal 100 mg/kg
Method: (§2) The influence of giniquine on biosynthetic processes in the in vivo tests was studied on common white mice of a mass of 25-35 g with Ehrlich ascitic tumor.
(§3) The mice were divided into two groups. The animals in the first group were given a single injection of the preparation in differing doses, and the animals in the second group were treated with distilled water. Three series of experiments were conducted. In the first series of tests (16 mice) the preparation was injected in a dose of 100 mg/kg ([…] dose), and the animals were decapitated one hour after the injection; in the second test series (16 mice) the animals were slaughtered 3 hours after the injection with other conditions being the same. In the third test series (35 mice) the influence of giniquine on plastic metabolism in tumor cells and normal tissues was studied 24 hours after the injection of a 0.33% solution of the preparation in a dose of 28 mg/kg (therapeutical dose).
(§4) Labeled precursors of nucleic acids and protein were injected intraperitoneally one hour before the slaughter of the animals (50 μc/100 g). Ascitic fluid, as well as liver and spleen, mucous membrane of small intestine, brain, kidneys and lungs were taken for analysis. 10% suspension was prepared from tumor cells, and 10% homogenates were prepared from tissues in a physiological solution.
(§5) Tumor cells and tissue homogenates for precipitation of nucleic acids were treated with 57% perchloric acid (10:1). Acid-soluble fraction was removed by washing the precipitate twice with 5 ml of 5% perchloic acid with subsequent centrifuging at 2000 g. Nucleic acids were hydrolyzed by the Schneider method. Radioactivity of DNA and RNA fractions was measured by means of a liquid scintillation counter. The quantity of DNA and RNA was determined by spectrophotometry: the quantity of DNA was determined with diphenylamine, and RNA- with orcin.
(§6) To prepare protein hydrolysate, the suspension of tumoral cells and homogenates of normal tissues were treated with cool 10% trichloracetic acid (1:4), with subsequent centrifuging at 2000 g for ten minutes. The precipitate was washed twice with 5 ml of 10% trichloracetic acid. Lipoids were removed by a consecutive treatment of the precipitate with ethanol, saturated solution of sodium acetate, a mixture of ethanol and ether (3:1) and ether. To prepare protein hyhdrolysate, 4 ml of 0.3N KOH were added to the precipitate, and the mixture was placed into a thermostatic chamber at 37° C. for 60 minutes. The radioactivity was measured by means of a liquid scintillation counter. Protein was quantitatively determined by spectrophotometry using a microbiuret reaction.

Liver = test: In vivo biosynthesis of DNA, RNA and protein in liver; design: species or system mice; details: for Incorporation of 2-^14 C-leucine in protein / Incorporation of 2-^14 C-thymidine in DNA: intraperitoneal 100 mg/kg; for inhibition at 100 mg/kg: Mus musculus, three hours
Method: as §2, §3, §4, §5, §6

[2] = tested on: normal tissues (mucous membrane of small intestine, liver, spleen, brain, kidneys, lungs); test: In vivo biosynthesis of macromolecules in normal tissues; design: species or system mice; details: 24 hours, 28 mg/kg
Method: as §2
The mice were divided into two groups. The animals in the first group were given a single injection of the preparation in differing doses, and the animals in the second group were treated with distilled water. Three series of experiments were conducted. […]
Tumor cells and tissue homogenates for precipitation of nucleic acids were treated with 57% perchloric acid (10:1). […] Radioactivity of DNA and RNA fractions was measured by means of a liquid scintillation counter. The quantity of DNA and RNA was determined by spectrophotometry: the quantity of DNA was determined with diphenylamine, and RNA- with orcin.
To prepare protein hydrolysate, the suspension of tumoral cells and homogenates of normal tissues were treated with cool 10% trichloracetic acid (1:4), with subsequent centrifuging at 2000 g for ten minutes. […] The radioactivity was measured by means of a liquid scintillation counter. Protein was quantitatively determined by spectrophotometry using a microbiuret reaction.

[3] = BDF1 male mice, intraperitoneal, days 1,2,5,6,7, optim. daily dose 17.0 mg/kg
[4] = 24 hours, intraperitoneal 28 mg/kg

Structure (SMILES): CCN(CC)CCCC(C)NC(=O)c1cc(C=Cc2ccc([N+](=O)[O-])o2)nc2ccccc12 (stereo not drawn) [giniquine, 2-[2'-(5"-nitrofuryl-2")vinyl]quinoline-4-carboxylic acid (α-methyl-δ-diethylaminobutyl)amide triphosphate]
- sensitivity (in words) (lymphatic leukemia P-388; P-388): practically insensitive
- Max. life prolong. (lymphatic leukemia P-388; printed B-388, BDF1 female mice, intraperitoneal, days 1,2,3,4,7, optimum daily dose 10.0 mg/kg): 12%
- Deceleration of tumor growth (melanoma B16; [3]): 48%
- Max. prolongation of life (melanoma B16; [3]): 10%
- antitumor effect (in words) (melanoma B16; melanoma B16): slight antitumor effect
- time of detection in blood ([1]; blood): as early as in five minutes
- Cmax at 0.5 h ([1]; rat, blood, ip, 30 minutes, read-out: maximum level in blood): 23000 ng/mL
- Tmax ([1]; rat, ip, blood, read-out: time of maximum level in blood (converted)): 30 min
- Cmax ([1]; rat, ip, liver, read-out: maximum concentration in liver): 28000 ng/mL
- Tmax ([1]; rat, ip, liver, read-out: time of maximum concentration in liver (converted)): 20 min
- concentration at 1 h ([1]; rat, serum, ip, 60 minutes, read-out: content in blood serum): 3000 ng/mL
- Incorporation of 2-^14 C-leucine in protein (Spleen; 1 h): 97.0 % of control
- Incorporation of 2-^14 C-thymidine in DNA (Spleen; 1 h): 120.0 % of control
- Incorporation of 2-^14 C-leucine in protein (Spleen; 3 h): 40.0 % of control
- Incorporation of 2-^14 C-thymidine in DNA (Spleen; 3 h): 116.0 % of control
- Incorporation of specific precursors, DNA (Spleen; [4]): 330.0 % of control
- Incorporation of specific precursors, Protein (Spleen; [4]): 93.0 % of control
- Incorporation of specific precursors, RNA (Spleen; [4]): 162.0 % of control
- inhibition at 100 mg/kg (Spleen; Mus musculus, 3 h, three hours, 100 mg/kg): 60%
- inhibition of biosynthesis of protein (in words) (Spleen; one hour, 100 mg/kg): not observed or inappreciable
- stimulation of biosynthesis of DNA (Spleen; one hour, 100 mg/kg): 20%
- stimulation of biosynthesis of DNA (Spleen; three hours, 100 mg/kg): 16%
- Incorporation of 2-^14 C-leucine in protein (Liver; 1 h): 127.0 % of control
- Incorporation of 2-^14 C-thymidine in DNA (Liver; 1 h): 106.0 % of control
- Incorporation of 2-^14 C-leucine in protein (Liver; 3 h): 96.0 % of control
- Incorporation of 2-^14 C-thymidine in DNA (Liver; 3 h): 93.0 % of control
- Incorporation of specific precursors, DNA (Liver; [4]): 190.0 % of control
- Incorporation of specific precursors, Protein (Liver; [4]): 112.0 % of control
- Incorporation of specific precursors, RNA (Liver; [4]): 124.0 % of control
- inhibition at 100 mg/kg (Liver; 3 h, 100 mg/kg, read-out: inhibition of biosynthesis of DNA): 7%
- inhibition at 100 mg/kg (Liver; 3 h, 100 mg/kg, read-out: inhibition of biosynthesis of protein): 4%
- inhibition of biosynthesis of protein (in words) (Liver; one hour, 100 mg/kg): not observed or inappreciable
- stimulation of biosynthesis of DNA (Liver; one hour, 100 mg/kg): 6%
- biosynthesis processes in normal tissues (in words) [2]: a stimulation of biosynthesis processes
